In ChEMBL document CHEMBL1201862, “PubChem BioAssay data set” (2004):
The source made the active and inactive calls. No stated cut-off is given here; in the data, actives have a measured IC50 and inactives only a lower limit.

Target: Envelope glycoprotein gp160 (Human immunodeficiency virus 1, UniProt Q6QLK5)
Assay: inhibitors of HIV fusion peptide binding, primary screen, biochemical, uHTS, fluorescence dequenching (AID 1986)

Chain of Envelope glycoprotein gp160 (Q6QLK5 whole entry, the tested form may be a part): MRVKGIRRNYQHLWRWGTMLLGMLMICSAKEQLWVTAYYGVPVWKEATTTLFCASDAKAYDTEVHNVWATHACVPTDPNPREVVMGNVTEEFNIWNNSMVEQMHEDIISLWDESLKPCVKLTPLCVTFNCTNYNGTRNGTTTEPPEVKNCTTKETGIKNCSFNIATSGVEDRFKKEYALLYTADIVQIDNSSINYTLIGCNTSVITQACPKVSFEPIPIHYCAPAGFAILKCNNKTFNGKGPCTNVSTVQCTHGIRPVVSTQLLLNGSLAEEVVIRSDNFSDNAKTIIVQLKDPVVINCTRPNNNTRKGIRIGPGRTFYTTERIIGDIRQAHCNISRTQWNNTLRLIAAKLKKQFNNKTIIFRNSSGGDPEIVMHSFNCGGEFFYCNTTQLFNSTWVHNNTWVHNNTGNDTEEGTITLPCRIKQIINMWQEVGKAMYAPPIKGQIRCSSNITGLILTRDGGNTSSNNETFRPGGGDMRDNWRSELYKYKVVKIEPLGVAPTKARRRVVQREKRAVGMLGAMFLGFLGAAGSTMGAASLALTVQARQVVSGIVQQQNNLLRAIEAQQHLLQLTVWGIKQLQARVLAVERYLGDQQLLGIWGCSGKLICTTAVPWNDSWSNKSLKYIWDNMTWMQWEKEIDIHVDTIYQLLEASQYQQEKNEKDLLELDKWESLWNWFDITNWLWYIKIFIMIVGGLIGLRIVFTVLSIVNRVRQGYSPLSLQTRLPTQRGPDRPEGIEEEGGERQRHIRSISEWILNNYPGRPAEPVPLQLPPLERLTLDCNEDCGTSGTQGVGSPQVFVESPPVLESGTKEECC

O=C(O)CN1C(=O)/C(=C\c2ccccc2OCc2ccc(Cl)cc2Cl)SC1=S
IC50: 16.1 µM (active)
